Like-named read-outs stand apart in the source and are kept apart here.
Key:
[1] = system: tMEK2^MUT-induced gene activation (PR1b1, PR3, Twi1, ER5); test: Effect of MAPK inhibitors on tMEK2^MUT-induced gene activation in tomato protoplasts; format: cell-based, Tomato (Lycopersicon esculentum cv Bonny Best); conditions: for effect on all four genes previously activated by tMEK2^MUT: inhibitor at 1 μM in protoplast incubation buffer, genes PR1b1, PR3, Twi1, ER5 (FIG. 6); for effect on tMEK2^MUT-activated PR3 and ER5 genes / effect on tMEK2^MUT-activated PRlbl or Twi1 genes: 350 nM for SB 202190, 1 μM for SB 203580 in protoplast incubation buffer (FIG. 6)
Description: Kinase inhibitors at the concentration of 1 μM for staurosporine, 350 nM for SB 202190 and 1 μM for PD 98059, SB 203580 and SB 202474 were included in the proteoplast incubation buffer.
The protoplasts were resuspended in electroporation buffer containing 150 mM MgCl2 and 0.4 M mannitol at a density of 1×10^6 protoplasts/ml and co-electroporated with […] of pTZ19 carrying tMEK2 gene and pJD300 carrying luciferase gene in a total volume of 500 μl as described by Leckie (1994) with some modifications. Electroporation was performed at 200 volts and 100 μF (Gene Pulser II, Bio-Rad). Protoplasts were then allowed to recover on ice in the dark for 10 min followed by centrifugation at 500 g for 5 min. After removal of the supernatant, the protoplast pellet, with about 500 μl of buffer, was supplemented with another 500 μl protoplast incubation buffer. Protoplasts were incubated in the dark at 30° C. for 24 hr.
(§1) Kinase inhibitors (CalBiochem, San Diego, Calif.) at the concentration of 1 μM for staurosporine, 350 nM for SB 202190 and 1 μM for PD 98059, SB 203580 and SB 202474, when applicable, were included in the protoplast incubation buffer.
RT-PCR was as described above. The number of PCR cycles corresponded to the high end of the range in which a linear increase in products could be detected (generally 14-16 cycles were used). Reaction products were separated on 1.0% agarose gels. Southern blot analysis was used to estimate levels of specific amplified products. Equivalence of cDNA in different samples was verified using PCR reactions for actin. Primers were designed for PCR according to published sequences for tomato PR-lbl, chitinase, Twit, ER5 and actin (Tornero et al., 1997; Danhash et al., 1993; O'Donnell et al., 1998; Zegzoutti et al. 1997; Moniz de Sa and Drouin, 1996).
To study divergence of the signal pathways downstream of tMEK2 the influence of […] expression in tomato protoplasts was examined in the presence of a broad protein kinase inhibitor (staurosporine) and inhibitors specific to the p38 class MAPK (SB 202190 or SB 203580). Staurosporine inhibited all four genes that were previously activated by tMEK2^MUT; whereas, inhibitors of p38 class MAPK inhibited the PR3 and ER5 genes but not PRlbl or Twi1. […] The results, shown in FIG. 6, are consistent with the divergence of signal pathway downstream of tMEK2. One of these pathways could include a p38 class MAPK.

[2] = system: tomato leaf mesophyll protoplasts; test: Protoplast viability in the presence of kinase inhibitors; format: cell-based, Tomato (Lycopersicon esculentum cv Bonny Best); conditions: 1 μM staurosporine, 350 nM SB 202190, 1 μM PD 98059, SB 203580 and SB 202474; data not shown
Description: as §1

myelin basic protein [3] = system: myelin basic protein
myelin basic protein [4] = target: myelin basic protein; remark: listed apart in the source
[5] = system: PR1b1, PR3 (chitinase) and Twi1 genes; test: Tomato protoplast transient expression, quantitative RT-PCR of pathogenesis-related genes; format: cell-based, Tomato (Lycopersicon esculentum cv Bonny Best); conditions: transient expression driven by tCUPΔ promoter after electroporation, 24 hr incubation, quantitative RT-PCR (FIG. 4)
From the text: To examine the effects of tMEK2^WT and tMEK2^MUT on the activation of pathogenesis-related (PR) or other pathogen-inducible genes a tomato protoplast transient expression system was developed. Chimeric genes, tCUPΔ-tMEK2^WT-nos and tCUPΔ-tMEK2^MUT-nos, were constructed using the storing constitutive promoter, tCUPΔ, which was derived from the tCUP promoter as by modification of the mRNA leader sequence described above. After electroporation, transient expression of potential target genes was detected by quantitative RT-PCR. The genes analysed included PRlbl, which is activated by tomato mosaic virus (Tornero et al., 1997); PR3 (chitinase), which is activated during an incompatible C. fulvam-tomato interaction (Danhash et al., 1993); and Twi, which is a pathogen- and would-inducible gene recently identified in tomato (O'Donnell, et al., 1998).
Tomato (Lycopersicon esculentum cv Bonny Best) were grown at 80% relative humidity in peat soil in growth cabinets programmed for 16 hr days at 25° C. and 8 hr nights at 22° C. Light intensity was controlled at 25 pE m-2 S-1 emitted from “cool white” fluorescent lamps (Philip Canada, Scarborough, Ontario). […]
(§2) RT-PCR was as described above. The number of PCR cycles corresponded to the high end of the range in which a linear increase in products could be detected (generally 14-16 cycles were used). […]

ER5 gene = test: Tomato protoplast transient expression, quantitative RT-PCR of wound-inducible gene ER5; format: cell-based, Tomato (Lycopersicon esculentum cv Bonny Best); conditions: transient expression in tomato protoplasts, quantitative RT-PCR (FIG. 5b)
Description: Tomato (Lycopersicon esculentum cv Bonny Best) were grown at 80% relative humidity in peat soil in growth cabinets programmed for 16 hr days at 25° C. and 8 hr nights at 22° C. Light intensity was controlled at 25 pE m-2 S-1 emitted from “cool white” fluorescent lamps (Philip Canada, Scarborough, Ontario). The youngest fully expanded leaves were surface sterilized for 5 min in 4% sodium hypochlorite and rinsed three times with sterile water. The lower epidermis was gently rubbed with Carborundum, rinsed with sterile water and leaf fragments of ca. 1 cm^2 were floated with exposed surface facing an enzyme solution containing 0.15% macerozyme R10 (Yakult Honsha Co., Japan), 0.3% Cellulase “Onozuka” Rio (Yakult Honsha Co., Japan), 0.4 M sucrose in K3 medium (Maliga et. al., 1973). After overnight incubation at 30° C., the enzyme-protoplast mixture was filtered through a 100 μm nylon sieve, centrifuged at 500 g for 5 min. and floated protoplasts were collected and washed twice with W5 medium (Maliga et.al., 1973). The protoplasts were kept on ice in W5 medium for 2 hr before transformation. […]
as §2

CN[C@@H]1C[C@H]2O[C@@](C)([C@@H]1OC)n1c3ccccc3c3c4c(c5c6ccccc6n2c5c31)C(=O)NC4 [Staurosporine, staurosporine]
effect on all four genes previously activated by tMEK2^MUT [1]: inhibited
change of protoplast viability [2]: did not change

GST-tMEK2^MUT (recombinant glutathione-S-transferase fusion of tMEK2 with serine221 and threonine226 replaced with aspartic acid)
substrate phosphorylation (in vitro kinase assay, SDS-PAGE, autoradiography) (myelin basic protein [3]): Both the wild type and mutant forms of the tMEK2 enzyme phosphorylated myelin basic protein (MPB) in vitro

CCc1nc(-c2ccc(OC)cc2)[nH]c1-c1ccncc1 [SB202474]
effect on all four genes previously activated by tMEK2^MUT [1]: no effects
change of protoplast viability [2]: did not change

Oc1ccc(-c2nc(-c3ccc(F)cc3)c(-c3ccncc3)[nH]2)cc1 [SB 202190]
effect on tMEK2^MUT-activated PR3 and ER5 genes [1]: inhibited
effect on tMEK2^MUT-activated PRlbl or Twi1 genes [1]: not

C[S+]([O-])c1ccc(-c2nc(-c3ccc(F)cc3)c(-c3ccncc3)[nH]2)cc1 (centres unmarked) [SB 203580]
effect on tMEK2^MUT-activated PR3 and ER5 genes [1]: inhibited
effect on tMEK2^MUT-activated PRlbl or Twi1 genes [1]: not
change of protoplast viability [2]: did not change

COc1cccc(-c2cc(=O)c3ccccc3o2)c1N [PD 98059]
effect on all four genes previously activated by tMEK2^MUT [1]: no effects

B1: GST-tMEK2^WT (recombinant glutathione-S-transferase fusion of wild type tomato cv. Bonny Best MAP kinase kinase tMEK2) (protein)
chain: MKKGSFAPNLKLSLPPPDEVALSKFLTESGTFKDGDLLVNRDGVRIVSQSEVAAPSVIQPSDNQLCLADFEAVKVIGKGNGGIVRLVQHKWTGQFFALKVIQMNIDESMRKHIAQELRINQSSQCPYVVICYQSFFDNGAISLILEYMDGGSLADFLKKVKTIPERFLAVICKQVLKGLWYLHHEKHIIHRDLKPSNLLINHRGDVKITDFGVSAVLASTSGLANTFVGTYNYMSPERISGGAYDYKSDIWSLGLVLLECATGHFPYKPPEGDEGWVNVYELMETIVDQPEPCAPPDQFSPQFCSFISACVQKHQKDRLSANDLMSHPFITMYDDQDIDLGSYFTSAGPPLATLTEL
substrate phosphorylation (in vitro kinase assay, SDS-PAGE, autoradiography) (myelin basic protein [4]): Both the wild type and mutant forms of the tMEK2 enzyme phosphorylated myelin basic protein (MPB) in vitro

B2: tMEK2^WT: wild type MAPKK gene tMEK2 isolated from tomato cv. Bonny Best, expressed from tCUPΔ promoter (protein)
chain: B1 chain
modifications: left off: a dimerising Fc or GST
activation of tomato PRlbl, chitinase and Twil genes [5]: no effect
activation of ER5 gene (ER5 gene): did not
